Test [1] deals with T1, Lysosomal acid glucosylceramidase (Mus musculus, UniProt P17439).
T1 sequence (P17439 whole entry): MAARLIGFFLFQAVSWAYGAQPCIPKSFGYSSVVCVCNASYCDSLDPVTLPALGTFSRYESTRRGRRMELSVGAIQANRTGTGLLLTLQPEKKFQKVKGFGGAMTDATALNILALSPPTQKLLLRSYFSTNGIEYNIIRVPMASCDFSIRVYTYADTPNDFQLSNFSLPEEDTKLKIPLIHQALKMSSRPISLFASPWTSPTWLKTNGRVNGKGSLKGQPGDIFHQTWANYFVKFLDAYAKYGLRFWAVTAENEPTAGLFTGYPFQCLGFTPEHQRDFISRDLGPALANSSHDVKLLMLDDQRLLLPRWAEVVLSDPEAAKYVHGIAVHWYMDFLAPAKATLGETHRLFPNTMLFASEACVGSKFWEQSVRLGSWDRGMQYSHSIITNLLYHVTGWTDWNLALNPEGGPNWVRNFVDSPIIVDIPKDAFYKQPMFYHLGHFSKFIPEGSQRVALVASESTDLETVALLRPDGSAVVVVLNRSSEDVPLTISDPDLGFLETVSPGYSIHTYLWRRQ
Briefly: Inhibitory activity against Glucosylceramidase in mouse liver. It counts as tissue-based.

In test [2] the target is T1, Lysosomal acid glucosylceramidase. Briefly: Inhibitory activity against Glucosylceramidase in mouse liver at a concentration of 10e-4 M; NA is inactive. The format is tissue-based.
The target is the same in test [3]. The test can be described thus: Inhibitory activity against Glucosylceramidase in mouse liver; Significant activity.
The target of the next test is T2, Galactocerebrosidase (Mus musculus, UniProt P54818).
T2 sequence (P54818 whole entry): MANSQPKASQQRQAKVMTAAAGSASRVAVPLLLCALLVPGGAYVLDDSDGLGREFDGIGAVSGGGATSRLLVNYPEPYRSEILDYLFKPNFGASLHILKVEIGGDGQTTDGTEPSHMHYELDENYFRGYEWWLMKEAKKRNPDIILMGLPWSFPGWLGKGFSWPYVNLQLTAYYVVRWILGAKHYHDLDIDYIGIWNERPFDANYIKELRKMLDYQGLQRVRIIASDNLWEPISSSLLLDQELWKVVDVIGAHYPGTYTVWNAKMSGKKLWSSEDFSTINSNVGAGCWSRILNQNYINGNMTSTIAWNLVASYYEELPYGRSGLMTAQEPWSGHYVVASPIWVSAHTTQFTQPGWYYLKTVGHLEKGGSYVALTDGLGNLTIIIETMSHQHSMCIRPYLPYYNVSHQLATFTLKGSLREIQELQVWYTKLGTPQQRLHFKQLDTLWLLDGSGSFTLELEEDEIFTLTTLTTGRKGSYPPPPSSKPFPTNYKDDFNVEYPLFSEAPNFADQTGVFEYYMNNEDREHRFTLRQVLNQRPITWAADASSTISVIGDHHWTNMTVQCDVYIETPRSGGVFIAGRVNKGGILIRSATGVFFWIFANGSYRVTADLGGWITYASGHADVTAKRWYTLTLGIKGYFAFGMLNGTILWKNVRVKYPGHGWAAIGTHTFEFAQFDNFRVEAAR
The test can be described thus: Inhibitory activity against Galactocerebrosidase; NA is not active.

Test [4] has as its target T1, Lysosomal acid glucosylceramidase. The test can be described thus: Inhibitory activity against Glucosylceramidase in mouse liver relative to compound 5; Active. It counts as tissue-based.
The target is the same in test [5]. Briefly: Specific inhibitory activity against Glucosylceramidase in mouse liver. The format is tissue-based.
For test [6] the target is unchanged. The test can be described thus: Specific inhibitory activity against Glucosylceramidase in mouse liver; Significant activity.

For orientation: IC50 means the concentration that inhibits the measured activity by half. Higher therefore signals weaker potency in that assay.

As to `O[C@@H]1[C@H]2O[C@H]2[C@H](O)C[C@H]1O`, the IC50 in test [1] was 98 µM. This counts as double-digit micromolar.

On to `O[C@H]1[C@H](O)[C@H](O)C[C@@H]2O[C@H]12`, for which the IC50 entry in test [2] was “Not Active”.

With `O[C@@H]1[C@H](O)[C@H](O)C[C@H]2O[C@@H]12`, in test [2], the IC50 entry was “Not Active”.

Consider `O[C@@H]1[C@H](O)[C@H]2O[C@H]2C[C@@H]1O`, for which the concentration for half-maximal inhibition (IC50) entry in test [2] is listed as “Not Active”.

For the molecule `O[C@H]1[C@@H]2O[C@@H]2[C@@H](O)C[C@H]1O`, the half-inhibitory concentration (IC50) entry in test [2] was “Not Active”.

For the molecule `O[C@@H]1[C@@H](O)[C@H](O)C[C@H](O)[C@@H]1O`, the IC50 result in test [3] was “Significant activity”.

In the case of `O[C@@H]1[C@@H](O)[C@H](O)C[C@H]2O[C@@H]12`, the IC50 result on Galactocerebrosidase is “Not Active”; in test [1], 0.96 µM.

In the case of `O[C@@H]1[C@H]2O[C@H]2[C@H](O)C[C@@H]1O`, in test [2], the IC50 entry is “Not Active”.

`O[C@@H]1[C@H](O)[C@H]2O[C@H]2C[C@H]1O`: in test [2], the 50% inhibitory concentration (IC50) entry is on record as “Not Active”.

For the molecule `O[C@@H]1[C@H]2O[C@H]2[C@@H](O)C[C@H]1O`, the IC50 entry in test [2] is “Not Active”.

On to `O[C@@H]1[C@@H](O)[C@H](O)C[C@@H]2O[C@H]12`, for which, in test [4], the IC50 entry is “Active”.

`O[C@@H]1[C@@H](O)[C@H](O)C[C@@H](O)[C@H]1O`: the half-inhibitory concentration (IC50) result in test [3] is recorded as “Significant activity”.

On to `O[C@H]1[C@H]2O[C@H]2[C@H](O)C[C@H]1O`, for which the half-maximal inhibitory concentration (IC50) result in test [2] was “Not Active”.

Turning to `O[C@H]1[C@@H]2O[C@@H]2[C@H](O)C[C@@H]1O`, the concentration for half-maximal inhibition (IC50) result in test [4] was “Active”.

The molecule `O[C@H]1[C@H](O)[C@@H](O)[C@@H]2O[C@@H]2[C@@H]1O` [CONDURITOL B EPOXIDE] came in with a concentration for half-maximal inhibition (IC50) in test [5] of 8.9 µM. This counts as single-digit micromolar.

In the case of `OC[C@@H]1[C@@H](O)[C@H](O)[C@@H](O)[C@@H]2O[C@H]12` [CYCLOPHELLITOL], in test [6], the IC50 entry is “Significant activity”.

These data come from ChEMBL document CHEMBL1132265, “Synthesis and evaluation of glucocerebrosidase inhibitory activity of anhydro deoxyinositols from (+)-epi- and (-)-vibo-quercitols” (Bioorg Med Chem Lett, 1999).
